System: differentiated thyroid cancer patients
Experiment: Tumor shrinkage (percent change of sum of diameters of target lesions) in E7080-treated DTC patients
Type: in vivo, human
Protocol: The period during which a patient takes E7080 was artificially divided into different Cycles for ease of evaluation and tracking. Patients received E7080 at a dose of 24 mg oral once daily in 28 day cycles. For analysis purposes, assessments of clinical outcomes were performed at the time of the 9 month and at 14 month minimum follow-up. For the E7080 Thyroid Cancer trial, each Cycle is 28 days (4 weeks) so Day 1-28 is cycle 1; Day 29 is Day 1 of Cycle 2; and Day 57 is Day 1 of Cycle 3. Blood samples were collected for pharmacokinetic (PK) analysis on Cycle 1 Days 1 and 8, Cycle 2 Day 1, and Cycle 3 Day 1. A total of 9 samples per patient were collected as follows: Cycle 1 Day 1: immediately prior to the dose of E7080, and at 0.5 and 2 hours following the first dose of E7080 (post-dose); Cycle 1 Day 8: immediately prior to the dose of E7080; Cycle 2 Day 1: immediately prior to the dose of E7080, 0.5 and 2 hours post-dose; Cycle 3 Day 1: immediately prior to the dose of E7080 and 2 hours post-dose. For analysis of progression free survival, PK parameter was used as a covariate in Cox proportional hazards model.
“Tumor shrinkage” (TS) means percent change of sum of diameters of target lesions, taking as reference the baseline sum diameters.
Also changes in thyroglobulin levels were associated with tumor shrinkage after completion of cycle 2 (56 days after treatment) (Speaman's rank correlation test, Table 8, middle).
Next, the factors associated with tumor shrinkage were investigated (Pearson's correlation coefficient test, Table 11).

SMILES: COc1cc2nccc(Oc3ccc(NC(=O)NC4CC4)c(Cl)c3)c2cc1C(N)=O [E7080, 4-(3-chloro-4-(cyclopropylaminocarbonyl)aminophenoxy)-7-methoxy-6-quinolinecarboxamide]
- % of tumor shrinkage (Median) (KRAS, NRAS (any of gene) mutation patients): −44.5%
- % of tumor shrinkage (Median) (KRAS, NRAS wild type patients): −31.0%
- % of tumor shrinkage (Median) (NRAS mutation patients): −45.5%
- % of tumor shrinkage (Median) (NRAS wild type patients): −35.5%

From patent US9945862B2, “Biomarkers for predicting and assessing responsiveness of thyroid and kidney cancer subjects to lenvatinib compounds” (Eisai R&D Management Co., Ltd., priority 2011, dated 2018)
